Data on eight compounds can be found in patent US20080213396A1, “Copper Lowering Treatment Of Cardiac Disease” (The Regents of the University of Michigan, priority 2007, published 2008).

One data set relates to DXR toxicity. In words: TM therapy copper supplementation doxorubicin study. The format is in vivo, mice. As to the method: (§1) Mice and mouse food. All mice were 7-8 weeks old at the start of the various studies, were C57BL/6 purchased from Jackson Laboratory, Bar Harbor, Me., and were housed at 21±2° C. on a 12 hr light/dark cycle in polycarbonate cages containing corn cob bedding. Experimental animals were housed in the University of Michigan Unit for Laboratory Animal Medicine facility and treated in accord with a protocol approved by the University of Michigan Institutional Animal Care and Use Committee. They were fed a mouse diet from Harlan/Teklad, Madison, Wis., to which copper and zinc had not been added by the manufacturer. Each lot was assayed by atomic absorption and found to contain about 0.6 mg of copper and about 6.0 mg of zinc/kg of food. Copper and zinc are then added to the diet such that the final contents were 2 mg copper and 10 mg zinc/kg of food.
TM therapy copper supplementation doxorubicin study. In order to verify that the effect of TM in the DXR study was due to lowering copper, a study of DXR toxicity was done in which a TM treated group was supplemented with excess copper. In this study, 20 mice were divided into four equal groups, 5 to receive 0.015 mg/ml of TM in the drinking water to lower Cp and then receive DXR (TM was given by gavage after DRX), 5 to receive TM in the same dose and manner as the first group but the diet was supplemented with either 30 or 100 ppm copper such that the Cp didn't fall as far as with TM alone, and then they received DXR, 5 to receive DXR only, and 5 served as controls. After Cp was decreased in the first group, DXR in an intraperitoneal dose of 20 mg/kg body weight was given to the first three groups of mice. Four days after DXR the mice were sacrificed and serum Cp, troponin I, and LDH determined.
(§2) Assay Methods. Cp was measured by the oxidase enzyme using known methods. Troponin I, LDH, and CK MB were measured by kit methods using known methods.
(§3) Statistical Analysis. For the comparison of means analysis of variance (ANOVA) was used. All data in the figures are given as means+the standard error.

The test system of the next data set is Wilson's disease. The settings on record: cited from earlier work.
Data set [1] concerns doxorubicin model of heart damage. In words: Zinc vs. TM therapy mouse doxorubicin study. The settings on record: for day 4 troponin I plasma level: FIG. 2; for day 4 CK MB plasma level: FIG. 3; for plasma Cp at day 0 (day of DXR administration): after pretreatment to lower Cp. The format is in vivo, C57BL/6 mice. As to the method: as §1
Zinc vs. TM therapy mouse doxorubicin study. The zinc depot method involved injecting subcutaneously a 20 mg zinc/mL of corn oil suspension to achieve a dose of 110 mg of zinc/kg of mouse weight, weekly. With this method, Cp levels were lowered to target range in 4 weeks. Cp levels were lowered with TM in a second group of mice by using 0.015 mg/ml of TM in the drinking water, and changing the drinking water every day.
20 male mice were divided into four equal groups, 5 to receive depot zinc and then DXR, 5 to receive TM in the drinking water and then DXR, 5 to receive DXR only, and 5 to serve as controls. After Cp levels had been lowered in the first two groups, the first three groups of mice received DXR intraperitoneally at a single dose of 20 mg/kg body weight. Since DXR toxicity inhibits mice from drinking water, after DXR administration, TM mice were treated with a daily gavage of 0.2 mg of TM in 0.1 ml of water. Four days after DXR, all mice were sacrificed, and Cp, troponin I, creatine kinase (CK) MB, and lactic dehydrogenase (LDH) levels were all measured in the plasma according to previously described methods.
as §2, §3

Data set [2] deals with DXR induced cardiotoxicity and myocardial fibrosis. In words: Trientine mouse doxorubicin study. The format is in vivo, mice. The procedure: as §1, with “Each lot was assayed by atomic absorption and found to contain about 0.6 mg of copper and about 6.0 mg of zinc/kg of food.” left out
Trientine mouse doxorubicin study. The copper chelator trientine was studied and compared to TM to determine the effects, if any, of trientine on DXR induced cardiotoxicity and myocardial fibrosis in mice using doses of trientine by oral gavage to lower the Cp to target range.
as §2, §3

The next data set concerns doxorubicin toxicity. The settings on record: mice, previously found; cited from earlier work.
Data set [3] in a line: Solubility and storage stability of TM salts. The format is physicochemical. The text has this: In some embodiments, the salt of TM is an ammonium salt. […] Thus, the bulk drug should be stored in the absence of oxygen, or the oxygen will gradually exchange with the sulfur, rendering the drug ineffective over time. The bulk drug is therefore stored under argon.
Thus, other salts have been prepared and evaluated for solubility, stability and anticopper activity. […] In other embodiments, the salt choline TM has suitable desirable properties. In yet other embodiments, the salt tetraethyl TM has suitable properties. These exemplary salts of TM have suitable solubility in water, and behave similarly to ammonium salt of TM in in vitro copper complexing studies.

The conditions of data set [4]: stability assays developed by the inventors (Brewer et al. 1991); cited from earlier work.
In data set [5] the test system is myocardial toxicity resulting from administration of doxorubicin HCl. The settings on record: administered contemporaneously with doxorubicin HCl; cited from earlier work.
[6] abbreviates: 4 days after DXR, vs DXR controls.

Turning to `[SH-].[SH-].[S]=[Mo]=[S]` [TM, tetrathiomolybdate], the “Cp value on day zero (day of DXR administration)” value with DXR toxicity (group average, DXR only group about 25 U/L) was “about 12 U/L”. In the data set with DXR toxicity (vs DXR only animals, FIG. 6), the “plasma LDH at day 4 after DXR” value is given as “statistically significantly lower than in the DXR only animals”. The “mean troponin I level at day 4 after DXR” value with DXR toxicity (vs DXR only animals, FIG. 7) is given as “less than half of the DXR only animals”. Further, in the data set with Wilson's disease (Wilson's disease work), the toxicity in humans result was “extremely low level of toxicity”. In the data set on Wilson's disease (Wilson's disease), the “effect on neurological worsening during initial treatment” value was “prevents the neurological worsening”. Further, the “plasma Cp at day 4 (day of sacrifice), increase after DXR” value in data set [1] (4 days after DXR 20 mg/kg i.p., FIG. 1) is “almost completely prevented”. Also, in data set [1] (setting [6]), the “day 4 troponin I plasma level” value is listed as “statistically significant effect on maintaining a lower troponin I” and the “day 4 CK MB plasma level” value is “statistically significantly lower value than DXR controls”. Besides, the “day 4 LDH plasma level” value in data set [1] (4 days after DXR, vs DXR controls, FIG. 4) was “statistically significant effect on maintaining lower values than DXR controls”. For the same compound, the “plasma Cp at day 0 (day of DXR administration)” value in data set [1] (FIG. 1) is “equal suppression of Cp”. Further, the “protection against cardiac damage, comparison with zinc” value in data set [1] (similar levels of copper lowering at the time of doxorubicin exposure) was “much more effective than zinc”. The “protection of the heart against doxorubicin toxicity, comparison with trientine” value in data set [2] (same animal model) was “much more effective than trientine”.
Take `CC(C)(S)[C@@H](N)C(=O)O` [penicillamine, reference compound]: the “neurological worsening during initial treatment” value in the data set on Wilson's disease (Wilson's disease, share of the time) is 50%.
In the case of `[Zn]` [zinc, reference compound], in data set [1] (setting [6]), the “day 4 troponin I plasma level” value is “somewhat lower mean value than controls, but it didn't reach statistical significance” and the “day 4 CK MB plasma level” value is listed as “no effect”. For the same compound, the “plasma Cp at day 0 (day of DXR administration)” value in data set [1] (FIG. 1) is “equal suppression of Cp”. Further, the “time until Cp levels lowered to target range” value in data set [1] (zinc depot s.c. 110 mg zinc/kg weekly) amounted to 4 weeks. Further, the “effect on doxorubicin toxicity” value with doxorubicin toxicity is given as “attenuates doxorubicin toxicity”.
Turning to `NCCNCCNCCN` [trientine], the “effect on LDH” value in data set [2] (FIG. 5B) is “no protective effect”. The “effect on CK-MB” value in data set [2] (FIG. 5C) was “no protective effect”. The “effect on Troponin 1” value in data set [2] (FIG. 5D) is listed as “statistically insignificant effect”. In addition, the “Cp at day 4 (4 days after DXR)” value in data set [2] (continued trientine therapy by oral gavage, FIG. 5A) is “increased into the normal range”. Further, the “Cp at day 0 (when DXR is given)” value in data set [2] (pretreated by oral gavage, FIG. 5A) is listed as “down significantly, into the target range”.
Take `CCC[N+](CCC)(CCC)CCC.CCC[N+](CCC)(CCC)CCC.[S]=[Mo](=[S])([S-])[S-]` [TPTM, tetrapropyl tetrathiomolybdate]: the “solubility, stability and anticopper activity, overall” value in data set [3] is reported as “has met all desired properties”.
`[NH4+].[NH4+].[SH-].[SH-].[S]=[Mo]=[S]` [TM as the ammonium salt]: the “stability of bulk drug under argon” value in data set [4] is “stable for several years under argon”. Further, the solubility in water entry in data set [3] was “moderately water soluble”. Besides, in data set [3] (bulk drug), the stability in air entry is “mild air instability”. Further, the stability in capsules entry in data set [3] (room temperature) is on record as “stable in capsules for several months at room temperature”.
Turning to `[Mo]` [Mo, molybdenum], in the data set with Wilson's disease (human, in vivo), the “toxicity of high doses” value is “without toxicity”.
With `C[C@@H](CN1CC(=O)NC(=O)C1)N1CC(=O)NC(=O)C1` [dexrazoxane, (S)-(+)-bis-4,4′-(1-methyl-1,2-ethanediyl)2,6-piperazinedione], the “effect on myocardial toxicity of doxorubicin HCl” value in data set [5] is “can reduce or prevent the myocardial toxicity”.
